Experimental data taken from patent publication US20220089568A1 (Janssen Biotech, Inc., priority 2019, published 2022).

Columns and labels:
[1] = system: MOLM-13 cells; experiment: MOLM-13 Cellular Assay; type: cell-based; conditions: Homo sapiens, 72 hours exposure, cell viability by CellTiter-Glo
Experimental: The day prior to assay set-up, cells were pelleted, resuspended in fresh media, counted, and cells were plated at 0.4×10^6 cell/mL in a T150 flask. […] Cells were exposed to different concentrations of test compounds at 37° C., 5% CO2 for 72 hours immediately after seeding.

[2] = biological target: T1, human DHODH (Homo sapiens, UniProt Q02127); experiment: DHODH Enzymatic Assay; type: biochemical; conditions: purified human DHODH; DCIP absorbance, end-point mode
T1 construct: purchased Proteros PR-0044
Experimental: To detect DHODH enzyme activities, dichloroindophenol (DCIP) is added as the final electron acceptor in the assay. DCIP can accept electrons from the reduced coenzyme Q generated in the assay, or from dihydroorotate (DHO) via FMN by binding presumably to the ubiquinone pocket. […] The assay buffer contained […], pH 7.5, 150 mM NaCl, 0.5 mM EDTA, and 0.1% Triton X-100 in MilliQ water. Substrate consisting of 20 mM DHO, 5 mM CoQ6, and 1 mM DCIP in assay buffer, initiates the reaction. […] Absorbance measurements were obtained using the BMG Phera Star plate-reading spectrophotomer. Purified human DHODH was purchased from Proteros (cat. No. PR-0044). Chemicals were purchased from Sigma-Aldrich, Teknova, and Avanti Polar Lipids. Liquid handling was performed using Labcyte Echo and Formulatrix Tempest.

T1 sequence (Q02127 whole entry): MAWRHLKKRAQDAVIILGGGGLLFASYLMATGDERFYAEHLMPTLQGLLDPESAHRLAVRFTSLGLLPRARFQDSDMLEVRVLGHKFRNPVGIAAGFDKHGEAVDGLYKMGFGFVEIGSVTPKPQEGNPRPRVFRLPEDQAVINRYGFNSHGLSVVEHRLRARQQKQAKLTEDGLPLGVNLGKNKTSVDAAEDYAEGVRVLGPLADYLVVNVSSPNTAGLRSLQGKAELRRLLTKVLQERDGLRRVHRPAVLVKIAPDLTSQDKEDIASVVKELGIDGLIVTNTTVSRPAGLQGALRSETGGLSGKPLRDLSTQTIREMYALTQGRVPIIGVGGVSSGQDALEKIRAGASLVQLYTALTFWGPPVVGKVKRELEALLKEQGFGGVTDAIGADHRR

| SMILES | EC50 [1] | EC50 [2] |
| --- | --- | --- |
| CCn1c(CO)nn(-c2nc(O[C@@H](C)C(F)(F)F)c(C(=O)Nc3c(Cl)c[nH]c(=O)c3Cl)cc2F)c1=O [Example 22, (S)-N-(3,5-Dichloro-2-oxo-1H-pyridin-4-yl)-6-[4-ethyl-3-(hydroxymethyl)-5-oxo-1,2,4-triazol-1-yl]-5-fluoro-2-[(1S)-2,2,2-trifluoro-1-methyl-ethoxy]pyridine-3-carboxamide] | 0.445 µM | 0.0015 µM |
| CCn1c(CO)nn(-c2nc(O[C@@H](C)C(F)(F)F)c(C(=O)Nc3[nH]c(=O)ccc3Cl)cc2F)c1=O [Example 23, (S)-N-(3-chloro-6-oxo-1,6-dihydropyridin-2-yl)-6-(4-ethyl-3-(hydroxymethyl)-5-oxo-4,5-dihydro-1H-1,2,4-triazol-1-yl)-5-fluoro-2-((1,1,1-trifluoropropan-2-yl)oxy)nicotinamide] | 0.09 µM | 0.0136 µM |
| CCn1c(CO)nn(-c2nc(O[C@@H](C)C(F)(F)F)c(C(=O)Nc3ccnc(OC)c3Cl)cc2F)c1=O [Example 24, (S)-N-(3-Chloro-2-methoxypyridin-4-yl)-6-(4-ethyl-3-(hydroxymethyl)-5-oxo-4,5-dihydro-1H-1,2,4-triazol-1-yl)-5-fluoro-2-((1,1,1-trifluoropropan-2-yl)oxy)nicotinamide] | 0.0101 µM | 0.0108 µM |
| CCn1c(CO)nn(-c2nc(O[C@@H](C)C(F)(F)F)c(C(=O)Nc3c(C)n[nH]c3Cl)cc2F)c1=O [Example 25, (S)-N-(5-Chloro-3-methyl-1H-pyrazol-4-yl)-6-(4-ethyl-3-(hydroxymethyl)-5-oxo-4,5-dihydro-1H-1,2,4-triazol-1-yl)-5-fluoro-2-((1,1,1-trifluoropropan-2-yl)oxy)nicotinamide] | 0.003 µM | 0.00084 µM |
| CCn1c(CO)nn(-c2nc(O[C@@H](C)C(F)(F)F)c(C(=O)Nc3snc(C)c3Cl)cc2F)c1=O [Example 26, (S)-N-(4-Chloro-3-methylisothiazol-5-yl)-6-(4-ethyl-3-(hydroxymethyl)-5-oxo-4,5-dihydro-1H-1,2,4-triazol-1-yl)-5-fluoro-2-((1,1,1-trifluoropropan-2-yl)oxy)nicotinamide] | > 0.1 µM | 0.108 µM |
| CCn1c(CO)nn(-c2nc(O[C@@H](C)C(F)(F)F)c(C(=O)Nc3cnccc3Cl)cc2F)c1=O [Example 27, (S)-N-(4-Chloropyridin-3-yl)-6-(4-ethyl-3-(hydroxymethyl)-5-oxo-4,5-dihydro-1H-1,2,4-triazol-1-yl)-5-fluoro-2-((1,1,1-trifluoropropan-2-yl)oxy)nicotinamide] | 0.0077 µM | 0.0047 µM |
| CCn1c(CO)nn(-c2nc(O[C@@H](C)C(F)(F)F)c(C(=O)Nc3c(F)cncc3Cl)cc2F)c1=O [Example 28, (S)-N-(3-Chloro-5-fluoropyridin-4-yl)-6-(4-ethyl-3-(hydroxymethyl)-5-oxo-4,5-dihydro-1H-1,2,4-triazol-1-yl)-5-fluoro-2-((1,1,1-trifluoropropan-2-yl)oxy)nicotinamide] | 0.0047 µM | 0.0023 µM |
| CCn1c(CO)nn(-c2nc(O[C@@H](C)C(F)(F)F)c(C(=O)Nc3c(F)cncc3C#N)cc2F)c1=O [Example 29, (S)-N-(3-Cyano-5-fluoropyridin-4-yl)-6-(4-ethyl-3-(hydroxymethyl)-5-oxo-4,5-dihydro-1H-1,2,4-triazol-1-yl)-5-fluoro-2-((1,1,1-trifluoropropan-2-yl)oxy)nicotinamide] | 0.0044 µM | 0.0025 µM |
| CCn1c(CO)nn(-c2nc(O[C@@H](C)C(F)(F)F)c(C(=O)Nc3c(F)cnc(OC)c3Cl)cc2F)c1=O [Example 30, (S)-N-(3-Chloro-5-fluoro-2-methoxypyridin-4-yl)-6-(4-ethyl-3-(hydroxymethyl)-5-oxo-4,5-dihydro-1H-1,2,4-triazol-1-yl)-5-fluoro-2-((1,1,1-trifluoropropan-2-yl)oxy)nicotinamide] | 0.0013 µM | 0.0012 µM |
| CCn1c(CO)nn(-c2nc(O[C@@H](C)C(F)(F)F)c(C(=O)Nc3snc(C)c3Br)cc2F)c1=O [Example 31, (S)-N-(4-Bromo-3-methylisothiazol-5-yl)-6-(4-ethyl-3-(hydroxymethyl)-5-oxo-4,5-dihydro-1H-1,2,4-triazol-1-yl)-5-fluoro-2-((1,1,1-trifluoropropan-2-yl)oxy)nicotinamide] | > 0.1 µM | 0.233 µM |
| CCn1c(CO)nn(-c2nc(O[C@@H](C)C(F)(F)F)c(C(=O)Nc3ncsc3C)cc2F)c1=O [Example 32, (S)-6-(4-Ethyl-3-(hydroxymethyl)-5-oxo-4,5-dihydro-1H-1,2,4-triazol-1-yl)-5-fluoro-N-(5-methylthiazol-4-yl)-2-((1,1,1-trifluoropropan-2-yl)oxy)nicotinamide] | 0.0253 µM | 0.0136 µM |
| CCn1c(CO)nn(-c2nc(O[C@@H](C)C(F)(F)F)c(C(=O)Nc3cc(Cl)cnc3OC)cc2F)c1=O [Example 33, (S)-N-(5-Chloro-2-methoxypyridin-3-yl)-6-(4-ethyl-3-(hydroxymethyl)-5-oxo-4,5-dihydro-1H-1,2,4-triazol-1-yl)-5-fluoro-2-((1,1,1-trifluoropropan-2-yl)oxy)nicotinamide] | > 0.1 µM | 0.0525 µM |
| CCn1c(CO)nn(-c2nc(O[C@@H](C)C(F)(F)F)c(C(=O)Nc3nccnc3OC)cc2F)c1=O [Example 34, (S)-6-(4-Ethyl-3-(hydroxymethyl)-5-oxo-4,5-dihydro-1H-1,2,4-triazol-1-yl)-5-fluoro-N-(3-methoxypyrazin-2-yl)-2-((1,1,1-trifluoropropan-2-yl)oxy)nicotinamide] | > 0.1 µM | 0.36 µM |
| CCn1c(CO)nn(-c2nc(O[C@@H](C)C(F)(F)F)c(C(=O)Nc3c(C)nsc3C)cc2F)c1=O [Example 35, (S)-N-(3,5-Dimethylisothiazol-4-yl)-6-(4-ethyl-3-(hydroxymethyl)-5-oxo-4,5-dihydro-1H-1,2,4-triazol-1-yl)-5-fluoro-2-((1,1,1-trifluoropropan-2-yl)oxy)nicotinamide] | 0.0061 µM | 0.0019 µM |
| CCn1c(CO)nn(-c2nc(O[C@@H](C)C(F)(F)F)c(C(=O)Nc3cc(C)cnc3F)cc2F)c1=O [Example 36, (S)-6-(4-Ethyl-3-(hydroxymethyl)-5-oxo-4,5-dihydro-1H-1,2,4-triazol-1-yl)-5-fluoro-N-(2-fluoro-5-methylpyridin-3-yl)-2-((1,1,1-trifluoropropan-2-yl)oxy)nicotinamide] | > 0.1 µM | 0.0586 µM |
| CCn1c(CO)nn(-c2nc(O[C@@H](C)C(F)(F)F)c(C(=O)Nc3cc(C)ncc3F)cc2F)c1=O [Example 37, (S)-6-(4-Ethyl-3-(hydroxymethyl)-5-oxo-4,5-dihydro-1H-1,2,4-triazol-1-yl)-5-fluoro-N-(5-fluoro-2-methylpyridin-4-yl)-2-((1,1,1-trifluoropropan-2-yl)oxy)nicotinamide] | > 0.1 µM | 0.2 µM |
| CCn1c(CO)nn(-c2nc(O[C@@H](C)C(F)(F)F)c(C(=O)Nc3c(C)ncnc3Cl)cc2F)c1=O [Example 38, (S)-N-(4-Chloro-6-methylpyrimidin-5-yl)-6-(4-ethyl-3-(hydroxymethyl)-5-oxo-4,5-dihydro-1H-1,2,4-triazol-1-yl)-5-fluoro-2-((1,1,1-trifluoropropan-2-yl)oxy)nicotinamide] | > 0.1 µM | 2.39 µM |
| CCn1c(CO)nn(-c2nc(O[C@@H](C)C(F)(F)F)c(C(=O)Nc3nc(C)ccc3F)cc2F)c1=O [Example 39, (S)-6-(4-Ethyl-3-(hydroxymethyl)-5-oxo-4,5-dihydro-1H-1,2,4-triazol-1-yl)-5-fluoro-N-(3-fluoro-6-methylpyridin-2-yl)-2-((1,1,1-trifluoropropan-2-yl)oxy)nicotinamide] | 0.0165 µM | 0.0141 µM |
| CCn1c(CO)nn(-c2nc(O[C@@H](C)C(F)(F)F)c(C(=O)Nc3c(C)cnc(OC)c3Cl)cc2F)c1=O [Example 40, (S)-N-(3-Chloro-2-methoxy-5-methylpyridin-4-yl)-6-(4-ethyl-3-(hydroxymethyl)-5-oxo-4,5-dihydro-1H-1,2,4-triazol-1-yl)-5-fluoro-2-((1,1,1-trifluoropropan-2-yl)oxy)nicotinamide] | 0.0003 µM | 0.00031 µM |
| CCn1c(CO)nn(-c2nc(O[C@@H](C)C(F)(F)F)c(C(=O)Nc3cc(C)cnc3OC)cc2F)c1=O [Example 41, (S)-6-(4-Ethyl-3-(hydroxymethyl)-5-oxo-4,5-dihydro-1H-1,2,4-triazol-1-yl)-5-fluoro-N-(2-methoxy-5-methylpyridin-3-yl)-2-((1,1,1-trifluoropropan-2-yl)oxy)nicotinamide] | 0.0524 µM | 0.0174 µM |
| CCn1c(CO)nn(-c2nc(O[C@@H](C)C(F)(F)F)c(C(=O)Nc3c(C)ccnc3F)cc2F)c1=O [Example 42, (S)-6-(4-Ethyl-3-(hydroxymethyl)-5-oxo-4,5-dihydro-1H-1,2,4-triazol-1-yl)-5-fluoro-N-(2-fluoro-4-methylpyridin-3-yl)-2-((1,1,1-trifluoropropan-2-yl)oxy)nicotinamide] | 0.0043 µM | 0.0024 µM |
| CCn1c(CO)nn(-c2nc(O[C@@H](C)C(F)(F)F)c(C(=O)Nc3ncnc(C)c3C)cc2F)c1=O [Example 43, (S)-N-(5,6-Dimethylpyrimidin-4-yl)-6-(4-ethyl-3-(hydroxymethyl)-5-oxo-4,5-dihydro-1H-1,2,4-triazol-1-yl)-5-fluoro-2-((1,1,1-trifluoropropan-2-yl)oxy)nicotinamide] | > 0.1 µM | 0.815 µM |
